# Test results from patent US7521062B2, “Thiosemicarbazones as anti-virals and immunopotentiators” (Novartis Vaccines & Diagnostics, Inc., priority 2002, dated 2009).
# System: HCV replicon RNA in Huh-11-7 or Huh 9-13 cells
# Experiment: HCV replicon cell based assay (quantification of HCV replicon RNA by RT-PCR, normalized to GAPDH)
# Conditions: separate/independent assays
# Protocol: Quantification of HCV replicon RNA in Cell Lines (HCV Cell Based Assay):
# Cell lines, including Huh-11-7 or Huh 9-13, harboring HCV replicons (Lohmann, et al Science 285:110-113, 1999) are seeded at 5×10^3 cells/well in 96 well plates and fed media containing DMEM (high glucose), 10% fetal calf serum, penicillin-streptomycin and non-essential amino acids. Cells are incubated in a 5% CO2 incubator at 37° C. At the end of the incubation period, total RNA is extracted and purified from cells using Qiagen Rneasy 96 Kit (Catalog No. 74182). To amplify the HCV RNA so that sufficient material can be detected by an HCV specific probe (below), primers specific for HCV (below) mediate both the reverse transcription (RT) of the HCV RNA and the amplification of the cDNA by polymerase chain reaction (PCR) using the TaqMan One-Step RT-PCR Master Mix Kit (Applied Biosystems catalog no. 4309169). […]
# Detection of the RT-PCR product was accomplished using the Applied Biosystem (ABI) Prism 7700 Sequence Detection System (SDS) that detects the fluorescence that is emitted when the probe, which is labeled with a fluorescence reporter dye and a quencher dye, is processed during the PCR reaction. The increase in the amount of fluorescence is measured during each cycle of PCR and reflects the increasing amount of RT-PCR product. […] The data is analyzed using the ABI SDS program version 1.7. […]
row,Structure (SMILES),anti-HCV activity
1,"NC(=S)N/N=C/c1ccccn1 [Example 113, pyridine-2-carbaldehydethiosemicarbazone]",weak or absent anti-HCV effects
2,"CCN(CC)c1ccc(/C=N/NC(N)=S)c(OCc2ccc(Cl)cc2)c1 [Example 29, 2-{[(4-chlorophenyl)methyl]oxy}-4-(diethylamino)benzaldehydethiosemicarbazone]",possess both SMIP and anti-HCV activity

# System: TNF-alpha production by human PBMC
# Experiment: TNF-alpha production by human PBMC (ELISA)
# Format: cell-based
# Conditions: cytokine secretion of hPBMC after stimulation with thiosemicarbazone compounds
# Protocol: Candidate small molecule immuno-potentiators can be identified in vitro. Compounds are screened in vitro for their ability to stimulate human peripheral blood mononuclear cells to produce cytokines (e.g. TNF-alpha and IL-12 p40). HCV antivirals were identified having this activity. These small molecule immuno-potentiators have potential utility as adjuvants and immuno-therapeutics.
# TNF-alpha production by human PBMC was measured using a commercial ELISA from supernatants of cells stimulated with the indicated compounds for 18 to 24 hours All test compounds were used at a final concentration of 5 μM/ml. Untreated PBMC (Cells) and LPS (0.1 ng/ml), CPG (10 ng/ml) and/or ALTTE (5 μM/ml) treated PBMC served as negative and positive controls, respectively.
# Table 2. Cytokine secretion of hPBMC after stimulation with thiosemicarbazone compounds.
# High Throughput Screening (ITS) for small molecule immune potentiators; SMIPs: Attention is drawn to FIG. 3. Various compounds were evaluated for their ability to produce cytokines in response to the small molecule compounds using a modified sandwich ELISA. Compounds are screened for their TNF inducing. “Hits” are selected based on their TNF-inducing activity relative to an optimal dose a strong TNF inducer. The robustness of the assay and low backgrounds have allowed for the routine selection of hits with ˜10% of this activity which is normally between 5-10× background (cells alone). Selected hits are then subjected to confirmation for their ability to induce cytokines from multiple donors at decreasing concentrations. Those compounds with consistent activity at or below 5 μM are considered confirmed.
# Thiosemicarbazones compounds with and without anti-HCV activity were screened for their capacity to activate immune cells. Structural analogs of this scaffold have been tested for their ability to induce cytokines from human PBMC and murine splenocytes. […] All compounds were tested at a final concentration of 5 μM except for poly I:C (PIC) and the 1806 oligodinucleotide (CpG) which were used at 10 μg/ml and 10 ng/ml respectively.
row,Structure (SMILES),TNFa production
1,"NC(=S)N/N=C/c1ccc(NCCc2ccc(Cl)cc2)c([N+](=O)[O-])c1 [Example 87, 4-{[2-(4-chlorophenyl)ethyl]amino}-3-nitrobenzaldehydethiosemicarbazone]",1.25 ng/10^6 cells/ml
2,"NC(=S)N/N=C/c1ccc(NCCc2cccc(Cl)c2)c([N+](=O)[O-])c1 [Example 86, 4-{[2-(3-chlorophenyl)ethyl]amino}-3-nitrobenzaldehydethiosemicarbazone]",5 ng/10^6 cells/ml
3,"Cc1ccc2c(c1)c1c(n2C)/C(=N/NC(N)=S)CCC1 [Example 115, (1E)-6,9-dimethyl-2,3,4,9-tetrahydro-1H-carbazol-1-onethiosemicarbazone]",1.25 ng/10^6 cells/ml
4,"NC(=S)N/N=C/c1ccc(-c2cccc(Cl)c2)o1 [Example 12, 5-(3-chlorophenyl)furan-2-carbaldehyde thiosemicarbazone]",2.32 ng/10^6 cells/ml
5,"NC(=S)N/N=C/c1ccccn1 [Example 113, pyridine-2-carbaldehydethiosemicarbazone]",2.34 ng/10^6 cells/ml
6,C/C(=N\NC(N)=S)c1sc(-c2ncc(C(F)(F)F)cc2Cl)nc1C [Example 114],1.7 ng/10^6 cells/ml
7,"COc1cc(/C=N/NC(N)=S)cc(Br)c1OCc1ccccc1F [Example 39, 3-bromo-4-{[(2-fluorophenyl)methyl]oxy}-5-(methyloxy)benzaldehydethiosemicarbazone]",5 ng/10^6 cells/ml
8,"NC(=S)N/N=C/c1cccc(OCc2ccccc2)c1 [Example 7, 3-[(phenylmethyl)oxy]benzaldehydethiosemicarbazone]",0 ng/10^6 cells/ml

# Same assay, conditions: human PBMC, 5 μM, FIG. 4
row,Structure (SMILES),"SMIP activity (cytokine induction, TNF-alpha and IL-12 p40, % of LPS activity)"
1,"NC(=S)N/N=C/c1ccccn1 [Example 113, pyridine-2-carbaldehydethiosemicarbazone]",potent SMIP activity
2,"CCN(CC)c1ccc(/C=N/NC(N)=S)c(OCc2ccc(Cl)cc2)c1 [Example 29, 2-{[(4-chlorophenyl)methyl]oxy}-4-(diethylamino)benzaldehydethiosemicarbazone]",possess both SMIP and anti-HCV activity
